Data as given in article PMC9115719, “Spatial Expression Analysis of Odorant Binding Proteins in Both Sexes of the Aphid Parasitoid Aphidius gifuensis and Their Ligand Binding Properties” (Frontiers in Physiology, 2022).
Several values for one entry are separate records, joined by “and”; a condition that tells them apart may be missing. Equal values may be shown once. Read-outs that look alike come from different tables or passages of the source.

Tests used:
[1] = molecular target: T1, AgifOBP7 (Aphidius gifuensis, UniProt A0A3S9LWE5); test: Fluorescence competitive binding assay (1-NPN displacement) with recombinant AgifOBP7; conditions: for binding to AgifOBP7 in words: fluorescence competitive binding assay
T1 sequence (A0A3S9LWE5 entry or part of it): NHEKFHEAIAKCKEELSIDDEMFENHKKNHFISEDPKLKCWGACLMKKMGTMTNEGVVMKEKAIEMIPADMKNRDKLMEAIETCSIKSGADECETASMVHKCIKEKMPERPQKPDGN
Method: (§1) Fluorescence intensity was recorded in a right angle configuration on a Lengguang 970CRT spectrofluorimeter (Shanghai Jingmi, China) at room temperature using a 1 cm light path fluorimeter quartz cuvette. A slit width of 10 nm was selected for both excitation and emission. The measured fluorescence intensities were corrected for both blank signals due to protein emission and scattered excitation light. The spectral data were processed using the software 970CRT 2.0l. Fluorescence binding experiments were conducted in […] Tris-HCl buffer, pH 7.4, at room temperature. The binding affinity for N-phenyl-1-naphthylamine (1-NPN) was determined by adding aliquots of a 1 mM stock solution of 1-NPN dissolved in spectrophotometric grade methanol into a 2 μM protein sample. The fluorescence of 1-NPN was excited at 337 nm, and emission was recorded between 350 and 500 nm. Spectra were recorded with a high-speed scan. All ligands used in competitive experiments were dissolved in spectrophotometric grade methanol. In competition assays, aliquots of the competing ligands were added into a 2 μM protein solution in the presence of a given concentration of 1-NPN. To estimate the binding affinities of each AgifOBP for a variety of different ligands, we monitored the decrease in 1-NPN fluorescence due to the ability of different odorants to displace 1-NPN and determined the Ki value for each compound. To determine the dissociation constants, the intensity values corresponding to the maximum fluorescence emissions were plotted against the cumulative 1-NPN concentration. The amount of bound ligand was calculated from the fluorescence intensity values by assuming that the protein was 100% active, with a stoichiometry of 1:1 protein: ligand at saturation. The curves were linearized using Scatchard plots. The value of K1-NPN was estimated on a direct plot by nonlinear regression with an equation corresponding to a single binding site using Prism 7 (GraphPad Software, Inc., United States), and the IC50 was defined as the concentration of a competitor that caused a 50% reduction in fluorescence intensity. The dissociation constants of the inhibitors (Ki) were calculated according to the formula Ki = [IC50]/(1+[1-NPN]/K1-NPN), in which [1-NPN] represents the free 1-NPN concentration and K1-NPN represents the dissociation constant for AgifOBPs/1-NPN ([Ban et al., 2003]; [Zhong et al., 2012]; [Sun et al., 2016]; [Fan et al., 2017]; [Qin et al., 2020]; [Wang et al., 2021b]). All fluorescence competitive binding assays were performed in three independent replicates, and Ki dates are present as means ± SD.
(§2) FIGURE 5 Expression and binding properties of AgifOBP7 and AgifOBP9 with candidate ligands. (A) Expression and purification of AgifOBP7, (B) Expression and purification of AgifOBP9. Line M: molecular weight PR 1910 (11–180 KDa) Marker, 11, 17, 25, 35, 48, 63, 75, 100, 135, 180 KDa; IN: Induced pET-28a (+)/AgifOBP7/9; Super: pET-28a (+)/AgifOBP7/9 Supernatant; IB: pET-28a (+)/AgifOBP7/9 Inclusion body; Pur: Purified pET-28a (+)/AgifOBP7/9 without His-tag. (C,D) Binding curves of AgifOBP7 and AgifOBP9 with N-phenyl-1-naphthylamine (1-NPN) in 50 mM Tris-HCl buffer (pH 7.4). (E,F) Competitive binding curves of AgifOBP7 and AgifOBP9 to components of aphid alarm pheromones ((E)-beta-farnesene, (-)-α-pinene, (-)-β-pinene, (+)-limonene, (E)-beta-farnesene derivative (CAU-II-11); aphid sexual pheromone (4aSR 7SR 7aRS)-nepetalactone, the volatiles of wheat green leaf (cis-3-hexen-1-ol) and aphid induced plant main volatiles (methyl salicylate, 6-methyl-5-hepten-2-one). A mixture of the recombinant protein and N-phenyl-1-naphthylamine (1-NPN) in 50 mM Tris-HCl buffer (pH 7.4) at the concentration of 2 μM was titrated with 1 mM solutions of each competing ligand to a final concentration range of 2–16 μM. Fluorescence values are presented as percent of the values in the absence of competitor. Date are the means ± SD of three independent experiments.

[2] = molecular target: T2, AgifOBP9 (Aphidius gifuensis, UniProt A0A3Q9EL79, L121S); test: Fluorescence competitive binding assay (1-NPN displacement) with recombinant AgifOBP9; conditions: for Ki: Tris-HCl pH 7.4, Ki = [IC50]/(1+[1-NPN]/K1-NPN), means ± SD, three replicates
T2 sequence (A0A3Q9EL79 entry or part of it L121S): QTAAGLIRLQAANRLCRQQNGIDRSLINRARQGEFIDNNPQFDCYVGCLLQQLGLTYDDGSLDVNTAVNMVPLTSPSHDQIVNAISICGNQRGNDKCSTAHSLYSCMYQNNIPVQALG
Method: as §1, §2

[3] = molecular target: T1, AgifOBP7; test: Binding of fluorescent probe 1-NPN to AgifOBP7; conditions: 2 μM protein, 50 mM Tris-HCl pH 7.4; read-out: dissociation constant of AgifOBP7/1-NPN complex
Method: (§3) Fluorescence intensity was recorded in a right angle configuration on a Lengguang 970CRT spectrofluorimeter (Shanghai Jingmi, China) at room temperature using a 1 cm light path fluorimeter quartz cuvette. A slit width of 10 nm was selected for both excitation and emission. The measured fluorescence intensities were corrected for both blank signals due to protein emission and scattered excitation light. The spectral data were processed using the software 970CRT 2.0l. Fluorescence binding experiments were conducted in […] Tris-HCl buffer, pH 7.4, at room temperature. […] The fluorescence of 1-NPN was excited at 337 nm, and emission was recorded between 350 and 500 nm. Spectra were recorded with a high-speed scan. […] To estimate the binding affinities of each AgifOBP for a variety of different ligands, we monitored the decrease in 1-NPN fluorescence due to the ability of different odorants to displace 1-NPN and determined the Ki value for each compound. To determine the dissociation constants, the intensity values corresponding to the maximum fluorescence emissions were plotted against the cumulative 1-NPN concentration. The amount of bound ligand was calculated from the fluorescence intensity values by assuming that the protein was 100% active, with a stoichiometry of 1:1 protein: ligand at saturation. […]

[4] = molecular target: T2, AgifOBP9; test: Binding of fluorescent probe 1-NPN to AgifOBP9; conditions: 2 μM protein, 50 mM Tris-HCl pH 7.4; read-out: dissociation constant of AgifOBP9/1-NPN complex
Method: as §3

[5] = displacement of 1-NPN, 2 μM protein, Tris-HCl pH 7.4, room temperature, read-out: OBP7 IC50
[6] = displacement of 1-NPN, 2 μM protein, Tris-HCl pH 7.4, Ki = [IC50]/(1+[1-NPN]/K1-NPN), means ± SD, three replicates, read-out: OBP7 Ki
[7] = displacement of 1-NPN, 2 μM protein, Tris-HCl pH 7.4, room temperature, read-out: OBP9 IC50
[8] = displacement of 1-NPN, 2 μM protein, read-out: OBP9 Ki
[9] = OBP9 Ki, displacement of 1-NPN, 2 μM protein

| SMILES | IC50 [1, 5] [µM] | Ki [1, 6] [µM] | binding to AgifOBP7 in words [1] | IC50 [2, 7] [µM] | Ki [2, 8] [µM] | IC50 [1] [µM] | Ki [1] [µM] | IC50 [2] [µM] | Ki [2, 9] | further results |
| --- | --- | --- | --- | --- | --- | --- | --- | --- | --- | --- |
| CC1=CCC2CC1C2(C)C (stereo not drawn) [(-)-α-Pinene] | > 30 | > 30 | not much | 24.1 ± 3.42 | 6.22 ± 0.88 |  |  |  |  | Ki ([2]; displacement of 1-NPN, 2 μM protein, listed as (-)-α-pinene, read-out: OBP9 Ki): < 10 µM |
| CC(=O)CCC=C(C)C [6-Methyl-5-hepten-2-one] |  |  | not much |  |  | > 30 | > 30 | 22.3 ± 3.38 | < 10 µM and 5.76 µM |  |
| c1ccc(Nc2cccc3ccccc23)cc1 [1-NPN, N-phenyl-1-naphthylamine] |  |  |  |  |  |  |  |  |  | Kd [3]: 1690 ± 270 nM; Kd [4]: 690 ± 240 nM |
| C=CC(=C)CC/C=C(\C)CCC=C(C)C [(E)-β-Farnesene] | > 30 | 20.3 ± 1.99 |  | 17.8 ± 1.69 | 4.6 ± 0.43 |  |  |  |  | Ki ([2]; displacement of 1-NPN, 2 μM protein, listed as EBF, read-out: OBP9 Ki): < 10 µM |
| C=C(C)C1CC=C(C)CC1 (single isomer, unassigned; (+)) [(+)-Limonene] | > 30 | > 30 | not much | 12.8 ± 0.25 | 3.32 ± 0.06 |  |  |  |  | Ki ([2]; displacement of 1-NPN, 2 μM protein, listed as (+)-limonene, read-out: OBP9 Ki): < 10 µM |
| COC(=O)c1ccccc1O [Methyl salicylate] |  |  | not much |  |  | > 30 | > 30 | 13.3 ± 2.99 | < 10 µM and 3.43 µM |  |
| CC1=COC(=O)[C@H]2[C@@H]1CC[C@@H]2C [(4aSR 7SR 7aRS)-Nepetalactone] | > 30 | 16.1 ± 3.49 |  | 9.03 ± 0.31 | 2.33 ± 0.08 |  |  |  |  | Ki ([2]; displacement of 1-NPN, 2 μM protein, listed as (4aSR 7SR 7aRS)-nepetalactone, read-out: OBP9 Ki): < 10 µM |
| C=C1CCC2CC1C2(C)C (stereo not drawn) [(-)-β-Pinene] | > 30 | > 30 | not much | 11.9 ± 1.27 | 3.06 ± 0.33 |  |  |  |  | Ki ([2]; displacement of 1-NPN, 2 μM protein, listed as (-)-β-pinene, read-out: OBP9 Ki): < 10 µM |
| COc1cccc(C(=O)OC/C=C(\C)CCC=C(C)C)c1O [CAU-II-11, (E)-3,7-dimethylocta-2,6-dien-1-yl-2-hydroxy-3-methoxybenzoate] |  |  |  |  |  | 18.6 ± 1.73 | 8.5 ± 0.73 | 4.15 ± 0.33 | 1.07 ± 0.08 µM |  |
| CC/C=C\CCO [cis-3-Hexenol] |  |  | not much |  |  | > 30 | > 30 | 17 ± 0.33 | < 10 µM and 4.39 µM |  |
